Consider three compounds from ChEMBL document CHEMBL1201862, “PubChem BioAssay data set” (2004).

Broadly, the IC50 is the concentration that gives 50% inhibition. A word on the AC50: it is the concentration giving half of the maximal activity seen.

Molecules are shown by their SMILES. Activity calls are given as the source filed them. Rule as the data show it, for most assays here: actives have a measured IC50 and inactives only a lower limit.

Type in all cases: functional
For test [1], the target named is T1, Sentrin-specific protease 8 (Homo sapiens, UniProt Q96LD8).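 Also: luminescence read-out of SENP8 inhibition, dose-response confirmation following an ultra-high-throughput screen.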
T1 sequence (Q96LD8 whole entry): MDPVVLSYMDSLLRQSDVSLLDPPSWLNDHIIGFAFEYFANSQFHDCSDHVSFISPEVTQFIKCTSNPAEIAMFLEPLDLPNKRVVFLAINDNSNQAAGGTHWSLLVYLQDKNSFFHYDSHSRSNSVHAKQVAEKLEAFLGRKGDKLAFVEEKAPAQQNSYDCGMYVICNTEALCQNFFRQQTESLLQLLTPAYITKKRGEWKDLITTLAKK

The target of test [2] is T2, Sentrin-specific protease 6 (Homo sapiens, UniProt Q9GZR1).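 Also: Luminescence-based dose-response confirmatory assay of SENP6 inhibition, following up an ultra-high-throughput screen.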
T2 sequence (Q9GZR1 whole entry): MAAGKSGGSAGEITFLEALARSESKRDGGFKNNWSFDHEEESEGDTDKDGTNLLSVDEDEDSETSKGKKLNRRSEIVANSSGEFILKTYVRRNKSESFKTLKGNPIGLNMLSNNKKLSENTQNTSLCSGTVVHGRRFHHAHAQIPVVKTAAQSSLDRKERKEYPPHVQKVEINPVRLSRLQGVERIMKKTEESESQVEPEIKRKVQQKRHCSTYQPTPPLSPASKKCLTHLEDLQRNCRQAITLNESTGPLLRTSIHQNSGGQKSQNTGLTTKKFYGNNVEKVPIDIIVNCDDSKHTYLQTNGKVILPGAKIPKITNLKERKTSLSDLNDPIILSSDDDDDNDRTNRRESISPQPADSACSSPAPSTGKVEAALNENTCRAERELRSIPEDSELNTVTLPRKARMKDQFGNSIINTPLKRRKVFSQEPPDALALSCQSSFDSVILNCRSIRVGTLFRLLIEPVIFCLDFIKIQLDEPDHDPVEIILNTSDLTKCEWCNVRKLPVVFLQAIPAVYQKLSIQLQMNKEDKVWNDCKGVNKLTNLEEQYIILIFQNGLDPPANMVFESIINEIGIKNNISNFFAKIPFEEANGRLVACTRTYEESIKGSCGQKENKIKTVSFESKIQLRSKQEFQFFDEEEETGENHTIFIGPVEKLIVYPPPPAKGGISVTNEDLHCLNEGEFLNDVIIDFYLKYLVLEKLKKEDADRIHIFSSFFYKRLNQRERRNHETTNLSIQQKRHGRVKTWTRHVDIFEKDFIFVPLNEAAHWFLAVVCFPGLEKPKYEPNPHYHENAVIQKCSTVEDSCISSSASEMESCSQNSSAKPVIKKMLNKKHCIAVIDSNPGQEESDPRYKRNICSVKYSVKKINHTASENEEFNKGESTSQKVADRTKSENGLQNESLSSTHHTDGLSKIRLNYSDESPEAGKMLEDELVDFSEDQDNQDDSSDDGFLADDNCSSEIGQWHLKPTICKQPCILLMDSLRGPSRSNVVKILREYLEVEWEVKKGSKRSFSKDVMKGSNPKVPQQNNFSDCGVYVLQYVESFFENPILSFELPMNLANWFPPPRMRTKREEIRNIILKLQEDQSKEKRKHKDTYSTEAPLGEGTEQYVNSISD

Test [3] has as its target T3, Caspase-3 (Homo sapiens, UniProt P42574).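 Also: Dose-response selectivity test against caspase-3 for candidate inhibitors of sentrin-specific proteases (SENPs).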
T3 sequence (P42574 whole entry): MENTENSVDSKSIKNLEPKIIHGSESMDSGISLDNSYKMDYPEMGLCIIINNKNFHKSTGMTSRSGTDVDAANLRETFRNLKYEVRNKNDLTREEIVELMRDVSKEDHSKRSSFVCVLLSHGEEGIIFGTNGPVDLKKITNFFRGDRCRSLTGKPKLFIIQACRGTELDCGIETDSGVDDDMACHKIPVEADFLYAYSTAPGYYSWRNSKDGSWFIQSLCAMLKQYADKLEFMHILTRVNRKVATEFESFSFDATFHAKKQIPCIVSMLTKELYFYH

Test [4] concerns the target T4, Replicative DNA helicase DnaB (Mycobacterium tuberculosis, UniProt P9WMR3).
T4 sequence (P9WMR3 whole entry): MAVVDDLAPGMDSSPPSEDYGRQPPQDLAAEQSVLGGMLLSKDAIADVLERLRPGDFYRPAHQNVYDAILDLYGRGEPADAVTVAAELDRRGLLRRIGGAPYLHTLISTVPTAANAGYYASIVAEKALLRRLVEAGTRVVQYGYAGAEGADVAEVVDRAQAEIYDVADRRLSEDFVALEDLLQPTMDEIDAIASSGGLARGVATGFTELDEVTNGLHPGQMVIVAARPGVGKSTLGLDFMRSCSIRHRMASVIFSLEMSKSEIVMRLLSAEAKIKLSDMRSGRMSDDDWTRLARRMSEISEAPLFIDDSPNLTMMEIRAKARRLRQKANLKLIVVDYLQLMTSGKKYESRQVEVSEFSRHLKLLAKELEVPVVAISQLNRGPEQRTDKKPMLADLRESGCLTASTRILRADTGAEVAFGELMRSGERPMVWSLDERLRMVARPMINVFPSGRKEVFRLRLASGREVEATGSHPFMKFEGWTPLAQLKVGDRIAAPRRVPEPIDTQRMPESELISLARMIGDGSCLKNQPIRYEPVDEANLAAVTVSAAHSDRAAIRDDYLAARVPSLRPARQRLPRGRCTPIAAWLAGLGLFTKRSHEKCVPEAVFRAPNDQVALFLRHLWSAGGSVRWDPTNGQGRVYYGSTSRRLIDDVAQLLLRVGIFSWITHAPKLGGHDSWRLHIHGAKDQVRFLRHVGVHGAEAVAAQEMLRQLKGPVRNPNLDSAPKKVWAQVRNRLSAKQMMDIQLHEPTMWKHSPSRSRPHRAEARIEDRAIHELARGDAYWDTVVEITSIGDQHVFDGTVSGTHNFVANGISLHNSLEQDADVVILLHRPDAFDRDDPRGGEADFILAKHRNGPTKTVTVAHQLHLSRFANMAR
As to the kind of experiment: DnaB intein splicing inhibitors, dose response, biochemical, cell-free fluorescence (AID 449749).

`C=CCNC1=C(Cl)C(=O)c2ccccc2C1=O`: the IC50 is 10.1 µM (active) in test [1], 9.07 µM (active) in test [2] and 3.62 µM (active) in test [3]. The AC50 in test [4] is 4.75 µM (active).
Regarding `CN(C)c1ccc(-c2nnc(-c3cccs3)o2)cc1`, the IC50 is > 100 µM (inactive) in test [1], > 100 µM (inactive) in test [2] and 22.3 µM (active) in test [3].
With `CCOC(=O)C(C(=O)OCC)c1cc(Br)c2noc3c2c1C(=O)c1ccccc1-3`, the AC50 in test [4] was 27.6 µM (active).
